Common to all, as to assay type: cell-based
Assay [1] concerns the target Sodium-dependent dopamine transporter (Homo sapiens, UniProt Q01959). In words: Displacement of [3H]RTI-55 from human DAT transfected in human HEK293 cells. Background: Displacement assays read how much labelled ligand stays bound in the presence of the test substance.
In assay [2] the test system is HEK293. The experiment in a line: Selectivity for human NET over human SERT transfected in human HEK293 cells.
Assay [3] has as its target Sodium-dependent serotonin transporter (Homo sapiens, UniProt P31645). The experiment in a line: Displacement of [3H](R,S)citalopram.HBr from human SERT transfected in human HEK293 cells.
Assay [4] deals with HEK293. In words: Selectivity for human DAT over human SERT transfected in human HEK293 cells.
Assay [5] addresses Sodium-dependent noradrenaline transporter (Homo sapiens, UniProt P23975). The experiment in a line: Displacement of [3H]nisoxetine from human NET transfected in human HEK293 cells.

This note sets out measurements from ChEMBL document CHEMBL1151757, “Synthesis, radiosynthesis, and biological evaluation of fluorine-18-labeled 2beta-carbo(fluoroalkoxy)-3beta-(3'-((Z)-2-haloethenyl)phenyl)nortropanes: candidate radioligands for in vivo imaging of the serotonin transporter with positron emission tomography” (J Med Chem, 2008).

Structures are written as SMILES.

Chain of Sodium-dependent noradrenaline transporter (P23975 whole entry): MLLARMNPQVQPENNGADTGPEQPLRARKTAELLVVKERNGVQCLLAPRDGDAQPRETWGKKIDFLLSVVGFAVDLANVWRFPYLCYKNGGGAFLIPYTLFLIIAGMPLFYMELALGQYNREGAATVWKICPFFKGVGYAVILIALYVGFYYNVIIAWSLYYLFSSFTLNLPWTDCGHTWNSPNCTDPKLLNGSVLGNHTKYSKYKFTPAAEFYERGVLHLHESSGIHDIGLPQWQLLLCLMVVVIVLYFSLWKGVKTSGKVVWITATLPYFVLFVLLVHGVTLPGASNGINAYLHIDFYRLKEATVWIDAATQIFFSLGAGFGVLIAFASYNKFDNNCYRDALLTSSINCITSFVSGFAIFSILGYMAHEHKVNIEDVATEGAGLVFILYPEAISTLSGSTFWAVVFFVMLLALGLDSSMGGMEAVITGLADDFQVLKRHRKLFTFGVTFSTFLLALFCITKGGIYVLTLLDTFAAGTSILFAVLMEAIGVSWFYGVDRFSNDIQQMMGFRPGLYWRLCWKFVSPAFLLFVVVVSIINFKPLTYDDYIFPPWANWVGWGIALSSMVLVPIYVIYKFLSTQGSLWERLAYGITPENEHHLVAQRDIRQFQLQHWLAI
Chain of Sodium-dependent dopamine transporter (Q01959 whole entry): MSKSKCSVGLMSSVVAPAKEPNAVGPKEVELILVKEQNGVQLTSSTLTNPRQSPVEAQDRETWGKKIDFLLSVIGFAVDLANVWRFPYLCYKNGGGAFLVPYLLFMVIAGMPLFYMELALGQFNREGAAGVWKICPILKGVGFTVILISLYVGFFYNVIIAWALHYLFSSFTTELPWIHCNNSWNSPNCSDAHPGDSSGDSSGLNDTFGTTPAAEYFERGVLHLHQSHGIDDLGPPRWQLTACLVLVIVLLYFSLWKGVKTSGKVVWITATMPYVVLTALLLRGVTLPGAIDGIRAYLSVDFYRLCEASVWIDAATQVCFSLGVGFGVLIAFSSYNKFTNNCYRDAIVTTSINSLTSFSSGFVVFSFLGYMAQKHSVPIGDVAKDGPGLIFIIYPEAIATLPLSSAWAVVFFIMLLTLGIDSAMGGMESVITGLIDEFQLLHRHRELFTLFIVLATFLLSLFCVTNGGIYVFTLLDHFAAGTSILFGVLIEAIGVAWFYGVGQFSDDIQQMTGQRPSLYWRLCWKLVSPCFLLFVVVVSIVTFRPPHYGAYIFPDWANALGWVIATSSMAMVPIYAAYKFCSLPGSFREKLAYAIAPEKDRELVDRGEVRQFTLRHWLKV
Chain of Sodium-dependent serotonin transporter (P31645 whole entry): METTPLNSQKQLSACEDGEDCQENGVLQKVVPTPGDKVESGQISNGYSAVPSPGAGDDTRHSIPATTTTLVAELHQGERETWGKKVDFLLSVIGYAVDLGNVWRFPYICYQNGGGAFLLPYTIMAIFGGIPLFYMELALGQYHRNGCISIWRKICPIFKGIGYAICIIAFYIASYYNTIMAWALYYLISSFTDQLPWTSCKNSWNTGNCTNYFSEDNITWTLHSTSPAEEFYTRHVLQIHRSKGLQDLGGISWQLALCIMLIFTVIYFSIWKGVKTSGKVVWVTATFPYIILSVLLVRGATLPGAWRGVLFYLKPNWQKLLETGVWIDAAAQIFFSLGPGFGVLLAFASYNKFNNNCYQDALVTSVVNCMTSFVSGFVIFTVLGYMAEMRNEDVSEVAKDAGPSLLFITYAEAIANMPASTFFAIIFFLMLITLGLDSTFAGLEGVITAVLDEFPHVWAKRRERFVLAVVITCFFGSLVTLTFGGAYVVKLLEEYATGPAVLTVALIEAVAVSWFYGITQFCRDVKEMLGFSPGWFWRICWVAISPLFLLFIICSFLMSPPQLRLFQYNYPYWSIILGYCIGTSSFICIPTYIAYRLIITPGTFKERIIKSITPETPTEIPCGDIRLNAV

For orientation: Ki means the equilibrium dissociation constant of an inhibitor or competing ligand from its target. As for `O=C(OCCF)C1C2CCC(CC1c1cccc(/C=C\I)c1)N2` (stereo not given), the Ki in assay [1] was found to be 87.6 nM; in assay [3], 0.43 nM; in assay [5], 110 nM. In addition, the Ratio Ki in the assay with HEK293 [2] is 256; in the assay on HEK293 [4], 204.

`O=C(OCCCF)C1C2CCC(CC1c1cccc(/C=C\I)c1)N2` (stereo not given): the Ki worked out at 180 nM in assay [1], 0.26 nM in assay [3] and 67.5 nM in assay [5]. Besides, the Ratio Ki with HEK293 [2] was 260; in the assay with HEK293 [4], 691.

For `O=C(OCCCF)C1C2CCC(CC1c1cccc(/C=C\Br)c1)N2` (stereo not given), the figures for the Ki in assay [1], in assay [3] and in assay [5] were 119 nM, 0.33 nM and 30.2 nM, respectively. Besides, the Ratio Ki amounted to 92 with HEK293 [2] and 360 with HEK293 [4].

On to `O=C(OCCF)C1C2CCC(CC1c1cccc(/C=C\Br)c1)N2` (stereo not given), for which the figures for the Ki in assay [1], in assay [3] and in assay [5] were 35.5 nM, 0.33 nM and 101 nM, respectively. Further, the figures for the Ratio Ki with HEK293 [2] and in the assay with HEK293 [4] were 307 and 108, respectively.

For `O=C(OCCF)C1C2CCC(CC1c1cccc(/C=C/I)c1)N2` (trans isomer), the figures for the Ki in assay [1], in assay [3] and in assay [5] were 274 nM, 15.2 nM and 1180 nM, respectively. For the same compound, the Ratio Ki with HEK293 [2] stood at 78; in the assay with HEK293 [4], 18.
